Experiments:
Format in all cases: cell-based, human
[1] = test system: tumor of patient suffering from ovarian cancer; test: ATP-TCA assay of tumor samples of patient one; settings: for Initial Therapeutic Index: tumor response curves ranked by AUC-1, high index = more effective
Method: Briefly, the ATP-TCA assay is conducted as follows. First, aseptically obtained solid tumor specimens are dispersed using, e.g. surgical scissors and scalpels. Subsequently, tissue fragments of 0.5 to 2 mm in diameter are enzymatically dissociated into a cell suspension of single cells and small aggregates by incubation for 4-18 h in 5-10 ml sterile collagenase-containing enzyme preparation such as tumor dissociation enzyme preparation, TDE. Commercially available from Atlantic Scientific, Fort Lauderdale, Fla., or from DCS Innovative Diagnostic Systeme GmbH, Hamburg, Germany. Alternatively, tissue fragments are dissociated using 1.5 mg/ml collagenase H (Sigma Chemical, St. Lewis, Mo.) or by mechanical desegregation. (see, […] al., 1997, Anticancer Drugs, 8:756-762) After filtration and ficoll-hypaque density centrifugation, e.g. (Lymphoprep®, ICN Flow, […], Germany; Histopaque, Sigma Chemical, St. […] A serum-free Complete Assay medium (CAM) available from DCS Innovative Diagnostik Systeme GmbH, Hamburg, Germany is added and cell suspensions then are adjusted to a final concentration of 1-2×10^5 viable cells per ml. […] Test drug concentrations (TDC) are prepared directly on the plates by serial 1:2-dilutions of the individual stock solutions. […] Appropriate controls, e.g., one with CAM, i.e., no inhibition control, (MO) and the other with Maximum ATP Inhibitor (MI) instead of the cytostatics, can be used in six wells of every culture plate. Subsequently, a sample, e.g. 100 μl of single cell suspension (i.e., 10,000- 20,000 cells) is added to each well. Cultures are incubated at 37° C. and 95% humidity in a 95% air, 5% CO2 atmosphere. After 5-7 days of incubation, another cytological analysis is performed in untreated MO controls. Subsequently, intracellular ATP is extracted and stabilized. Then 50 μl aliquots of each lysate is then transferred to a liminometer, e.g. a LB-953 liminometer (Berthold, Wildbad, Germany). ATP is measured, e.g. by the “firefly” light reaction after automatically pipetting 55 μl of Luciferin-Luciferase-Reagent (Lu-Lu) to each cell extract. Luminescence response expressed as Relative Light Units (RLU=photons/10) is counted for 10 seconds with a 4 second delay. An ATP standard curve is performed for all assays. […] End assays are also sampled for pathology, proof that the final wells after treatment contain tumor not benign cells. The following illustrates assignment of a Preliminary Rank or Order to a drug(s) or agent(s) based on the results of ATP-TCA assays of patient tumors presented in representative FIGS. 4A-C. All ATP-TCA assays were conducted as described previously herein in detail (see also, e.g., Andreotti et al., 1995, Cancer Res. 55:5276-82; Kurbacher et al., 1996, Breast Cancer Res. Treat., 41:161-70). FIG. 4A illustrates assay results were obtained with samples of a tumor of patient […] suffering from ovarian cancer. The results of an ATP-TCA assay are graphically presented (FIG. 4A) as a plot of (TDC) Test Drug Concentration (%) versus Tumor Growth Inhibition (%) (i.e., ATP test activity/ATP control×100%). (Carboplatin is abbreviated in FIGS. 4A-B as CBDCA.) The tumor response curves presented in FIG. 4A are ranked as described herein as if they were reference data. The numerical measure used is the AUC-I test. […] Alternative, the range from the least to the greatest response can be divided into 10 segments and the curves are assigned to their corresponding segments.

[2] = test system: tumor of patient also suffering from ovarian cancer; test: ATP-TCA assay of tumor samples of patient two; settings: for Initial Therapeutic Index: indexed as for patient one
Method: Briefly, the ATP-TCA assay is conducted as follows. First, aseptically obtained solid tumor specimens are dispersed using, e.g. surgical scissors and scalpels. Subsequently, tissue fragments of 0.5 to 2 mm in diameter are enzymatically dissociated into a cell suspension of single cells and small aggregates by incubation for 4-18 h in 5-10 ml sterile collagenase-containing enzyme preparation such as tumor dissociation enzyme preparation, TDE. Commercially available from Atlantic Scientific, Fort Lauderdale, Fla., or from DCS Innovative Diagnostic Systeme GmbH, Hamburg, Germany. Alternatively, tissue fragments are dissociated using 1.5 mg/ml collagenase H (Sigma Chemical, St. Lewis, Mo.) or by mechanical desegregation. (see, e.g., Myatt et al., 1997, Anticancer Drugs, 8:756-762) After filtration and ficoll-hypaque density centrifugation, e.g. (Lymphoprep®, ICN Flow, Meckenheim, Germany; Histopaque, Sigma Chemical, St. Louis, Mo.), the quality and viability of resultant single cell suspensions are determined e.g., by trypan blue dye exclusion (0.2% Merck, Darmstadt, Germany) and by subsequent cytological examination. A serum-free Complete Assay medium (CAM) available from DCS Innovative Diagnostik Systeme GmbH, Hamburg, Germany is added and cell suspensions then are adjusted to a final concentration of 1-2×10^5 viable cells per ml.
Drug assays can be performed in 96-well polypropylene microtiter plates (round-bottom). Test drug concentrations (TDC) are prepared directly on the plates by serial 1:2-dilutions of the individual stock solutions. Each drug is tested by continuous exposure in triplicate at a number, e.g., six different concentrations ranging from 6.25% to 200% of test drug concentration.
Subsequently, a sample, e.g. 100 μl of single cell suspension (i.e., 10,000- 20,000 cells) is added to each well. Cultures are incubated at 37° C. and 95% humidity in a 95% air, 5% CO2 atmosphere.
After 5-7 days of incubation, another cytological analysis is performed in untreated MO controls. Subsequently, intracellular ATP is extracted and stabilized. Then 50 μl aliquots of each lysate is then transferred to a liminometer, e.g. a LB-953 liminometer (Berthold, Wildbad, Germany). ATP is measured, e.g. by the “firefly” light reaction after automatically pipetting 55 μl of Luciferin-Luciferase-Reagent (Lu-Lu) to each cell extract. Luminescence response expressed as Relative Light Units (RLU=photons/10) is counted for 10 seconds with a 4 second delay. An ATP standard curve is performed for all assays. MO should be greater than 100 pg/ml ATP. Assays showing mean RLU values of less than 20,000 (MO), a MI/MO-ratio>0.01, or evidence of microbiological contamination are regarded as non-evaluable. End assays are also sampled for pathology, proof that the final wells after treatment contain tumor not benign cells.
All ATP-TCA assays were conducted as described previously herein in detail (see also, e.g., Andreotti et al., 1995, Cancer Res. 55:5276-82; Kurbacher et al., 1996, Breast Cancer Res. Treat., 41:161-70).

[3] = test system: tumor of a pancreatic cancer patient; test: ATP-TCA assay of tumor samples of a pancreatic cancer patient; settings: pancreatic cancer sample
Method: Briefly, the ATP-TCA assay is conducted as follows. First, aseptically obtained solid tumor specimens are dispersed using, e.g. surgical scissors and scalpels. Subsequently, tissue fragments of 0.5 to 2 mm in diameter are enzymatically dissociated into a cell suspension of single cells and small aggregates by incubation for 4-18 h in 5-10 ml sterile collagenase-containing enzyme preparation such as tumor dissociation enzyme preparation, TDE. Commercially available from Atlantic Scientific, Fort Lauderdale, Fla., or from DCS Innovative Diagnostic Systeme GmbH, Hamburg, Germany. Alternatively, tissue fragments are dissociated using 1.5 mg/ml collagenase H (Sigma Chemical, St. Lewis, Mo.) or by mechanical desegregation. […] A serum-free Complete Assay medium (CAM) available from DCS Innovative Diagnostik Systeme GmbH, Hamburg, Germany is added and cell suspensions then are adjusted to a final concentration of 1-2×10^5 viable cells per ml. […] Test drug concentrations (TDC) are prepared directly on the plates by serial 1:2-dilutions of the individual stock solutions. […] Subsequently, a sample, e.g. 100 μl of single cell suspension (i.e., 10,000- 20,000 cells) is added to each well. Cultures are incubated at 37° C. and 95% humidity in a 95% air, 5% CO2 atmosphere. After 5-7 days of incubation, another cytological analysis is performed in untreated MO controls. Subsequently, intracellular ATP is extracted and stabilized. Then 50 μl aliquots of each lysate is then transferred to a liminometer, e.g. a LB-953 liminometer (Berthold, Wildbad, Germany). ATP is measured, e.g. by the “firefly” light reaction after automatically pipetting 55 μl of Luciferin-Luciferase-Reagent (Lu-Lu) to each cell extract. Luminescence response expressed as Relative Light Units (RLU=photons/10) is counted for 10 seconds with a 4 second delay. An ATP standard curve is performed for all assays. MO should be greater than 100 pg/ml ATP. […] End assays are also sampled for pathology, proof that the final wells after treatment contain tumor not benign cells. […] All ATP-TCA assays were conducted as described previously herein in detail (see also, e.g., Andreotti et al., 1995, Cancer Res. 55:5276-82; Kurbacher et al., 1996, Breast Cancer Res. Treat., 41:161-70).

N.N.O=C([O-])C1(C(=O)[O-])CCC1.[Pt+2] [Carboplatin]
activity against this patient's tumor [1]: single best drug | Initial Therapeutic Index [1]: 10 | activity against this patient's tumor [2]: at best moderately active | Initial Therapeutic Index [2]: 5

N.N.[Cl][Pt][Cl] [DDP, cisplatin]
Initial Therapeutic Index [3]: 2 | activity against this tumor [3]: not significantly active

Nc1ccn([C@@H]2O[C@H](CO)[C@@H](O)C2(F)F)c(=O)n1 [Gemcitabine, gemcitabine]
activity against this patient's tumor [1]: not significantly active | Initial Therapeutic Index [1]: 3 | activity against this patient's tumor [2]: at best moderately active | Initial Therapeutic Index [2]: 3 | Initial Therapeutic Index [3]: 3 | activity against this tumor [3]: not significantly active

CC(=O)O[C@H]1C(=O)[C@@]2(C)[C@H]([C@H](OC(=O)c3ccccc3)[C@]3(O)C[C@H](OC(=O)[C@H](O)[C@@H](NC(=O)c4ccccc4)c4ccccc4)C(C)=C1C3(C)C)[C@]1(OC(C)=O)CO[C@@H]1C[C@@H]2O [Taxol, paclitaxel]
activity against this patient's tumor [1]: not significantly active | Initial Therapeutic Index [1]: 2 | activity against this patient's tumor [2]: single best drug | Initial Therapeutic Index [2]: 8

From patent US20060058966A1, “Methods and systems for guiding selection of chemotherapeutic agents” (priority 2004, published 2006)
